Experimental data reported in the METLIN SMRT retention time set (Domingo-Almenara et al. 2019).

Assay: gradient 5% acetonitrile 3 min, to 50% in 2 min, to 85% in 15 min, held 3 min, 100 µL/min
Details: column: Zorbax Extend-C18 2.1 x 50 mm; eluents: water / acetonitrile, 0.1% formic acid
In short: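 Values are retention times taken from adduct peaks that software picked and an analyst inspected. The pure standards were run as mixtures of ~100 molecules on HPLC linked to a quadrupole time-of-flight mass spectrometer, in positive and negative ionization mode. A Zorbax Extend-C18 column (2.1 × 50 mm, 1.8 μm) was used at 100 μL/min with water and acetonitrile, each including 0.1% formic acid.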

Row | Compound | RP-LC retention time
1 | Cc1noc(C2(NC(=O)c3ccc(C(F)(F)F)cc3)CCCCC2)n1 | 711 s
2 | COCC1CN(S(=O)(=O)c2cccc(C#N)c2)CCC1(F)F (centres undefined) | 892 s
3 | O=C(Nc1cccc(F)c1)C1CCN(S(=O)(=O)c2ccc3[nH]c(=O)ccc3c2)CC1 | 736 s
4 | CCOc1ccc(-c2noc(C3CC(=O)N(c4ccc5c(c4)OCO5)C3)n2)cc1 (centres undefined) | 951 s
5 | COc1ccc(C(=O)NCCc2nc3cccnc3n2C(C)C)cc1 | 649 s
6 | Cc1ccc(CNC(=O)c2ncn3c2C(=O)N(C2CC2)C(C)(C(=O)NCc2ccc(C)cc2)C3)cc1 (centres undefined) | 832 s
7 | Cc1occc1-c1nnc2sc(COc3ccc(Cl)cc3)nn12 | 1000 s
8 | O=C(c1cccc(Nc2nc3ccccc3n3nnnc23)c1)N1CCN(c2ccccn2)CC1 | 655 s
9 | O=C(NCc1ccc(C(F)(F)F)cc1)c1c(O)c2cccnc2n(-c2ccccc2)c1=O | 1230 s
10 | CC(C)NC(=O)C1Cc2cc(C(F)(F)F)ccc2N2CCN(c3ccccc3)CC12 (centres undefined) | 1100 s
11 | CCSc1ccccc1C(=O)NCc1ccsc1 | 786 s
12 | CC1(C(=O)N2CC(F)(F)C[C@H]2c2nc(-c3ncccn3)no2)CC1 | 674 s
13 | CCC(=O)N1CCc2sc(C(=O)N3CCN(c4cccc(Cl)c4)CC3)cc2C1 | 900 s
14 | O=C(Cc1nnc(-c2ccc3ncccc3c2)o1)Nc1cc(F)cc(F)c1 | 784 s
15 | CCS(=O)(=O)N1CC(=O)N(c2ccc(Cl)cc2)C(C)(C(=O)NC2CCCCC2)C1 (centres undefined) | 882 s
16 | Cc1[nH]c(C(=O)N2CCC(CC(=O)NC(C)c3ccccc3)CC2)c(C)c1C(=O)OC(C)C (centres undefined) | 832 s
17 | CCn1c(=O)sc2cc(S(=O)(=O)N3CCC(C(=O)Nc4nc(C)cs4)CC3)ccc21 | 827 s
18 | Cc1nc(-c2ccc(C(=O)NC3CCCCC3)cc2)cs1 | 900 s
19 | O=C(Nc1ccc(C(F)(F)F)cc1)c1cn(CC(O)c2ccccc2)nn1 (centres undefined) | 581 s
20 | Cc1ccc(NC(=O)Cn2cc3c(n2)CCC(C)C3)c(C)c1 (centres undefined) | 987 s
21 | CC(C)(C)n1nc2c(c1-n1cccc1)CN(C(=O)C1COc3ccccc3O1)C2 (centres undefined) | 1050 s
22 | O=C(NCCc1c[nH]c2ccccc12)c1cn(-c2ccc(F)cc2)nn1 | 898 s
23 | O=C(C1=COCCO1)N1CCN(c2ccccc2)CC1 | 694 s

Row | Compound | RP-LC retention time
24 | COc1ccc(C(=O)Nc2nnc(C3CC(=O)N(c4ccc(Cl)cc4)C3)o2)cc1 (centres undefined) | 773 s
25 | O=S(=O)(c1cccc(F)c1)N1CCc2nc(-c3ccc(Cl)cc3)ncc2C1 | 1130 s
26 | Cn1nc(-c2nnc(-c3ccccc3F)o2)c2c1CCN(S(=O)(=O)c1ccc(F)c(Cl)c1)C2 | 990 s
27 | COc1ccc(OC)c(NC(=O)C2CC(=O)N(CCc3c[nH]c4ccc(F)cc34)C2)c1 (centres undefined) | 794 s
28 | Cc1ccc(NC(=O)Cn2cnc3nc(-c4cccnc4)ncc3c2=O)cc1F | 656 s
29 | Cc1noc(C2CN(C(=O)Cc3noc4ccccc34)C2)n1 | 642 s
30 | Cc1ccc2c(c1)C1CC(C)(O2)N(c2cccc(C(=O)N3CCN(c4ccccn4)CC3)c2)C(=O)N1 (centres undefined) | 625 s
31 | O=C(NCCC1CCN(C(=O)Nc2cc(F)ccc2F)CC1)c1ccoc1 | 758 s
32 | O=C(N[C@H]1C[C@@H]2C[C@H]1CN2C(=O)Cc1c(F)cccc1Cl)c1cccs1 | 710 s
33 | CC1=NS(=O)(=O)N(C)C=C1C(=O)OCc1cccc(Cl)c1 | 968 s
34 | CCn1c(C2CCN(S(=O)(=O)c3ccc(C(C)C)cc3)C2)nc2cccnc21 (centres undefined) | 906 s
35 | CS(=O)(=O)N1C[C@H]2CCN(Cc3ccc(Cl)cc3F)C[C@H]21 | 599 s
36 | Cc1cc(C(=O)Nc2nc(-c3ccccc3)c(-c3ccccc3)s2)no1 | 1180 s
37 | CC1=C(c2cccc(Cl)c2)S(=O)(=O)N=C1N1CCCN(C(=O)c2ccoc2)CC1 | 806 s
38 | CCN(C)C(=O)C1CN(C(=O)c2cccs2)CC1c1cccc(C(F)(F)F)c1 (centres undefined) | 823 s
39 | CC(C)(C)C(=O)N1CCN(Cc2noc(-c3ccc(F)cc3)n2)CC1 | 712 s
40 | O=C(c1n[nH]c2ccccc12)N1CCCn2nc(-c3ccncc3)cc2C1 | 603 s
41 | CCN1C(=O)C(CC(=O)N2CCCC2)Sc2ncccc21 (centres undefined) | 654 s
42 | CCc1ccc(C2=C(C)C(N3CCC(C(=O)NC(C)C)CC3)=NS2(=O)=O)cc1 | 812 s
43 | O=C(c1ccc(Cl)cc1)N1CCN(c2cnn3cnnc3c2)CC1 | 634 s
44 | COC(=O)c1cc(S(=O)(=O)N2CCCC2C(=O)N2CCC(C)CC2)cn1C (centres undefined) | 770 s
45 | c1ccc(CC2CCN(Cc3nc(-c4ccc(N5CCOCC5)nc4)no3)CC2)cc1 | 716 s
46 | CC(C)n1c(N2CCN(C(=O)c3[nH]nc4c3CCc3ccccc3-4)CC2)cc(=O)n(C(C)C)c1=O | 872 s

Row | Compound | RP-LC retention time
47 | O=c1cc(-c2ccccc2)nc2n1CCN2Cc1ccncc1 | 589 s
48 | COc1ccccc1N1CCN(CCCCN2C(=O)c3ccccc3C2=O)CC1 | 751 s
49 | CCC(=O)N1CCc2sc(C(=O)N3CCN(c4ccccc4)CC3)cc2C1 | 794 s
50 | O=C(C1CCCN(c2ncnc3c2nc2n3CCCCC2)C1)N(Cc1ccco1)C1CCCCC1 (centres undefined) | 1020 s
51 | Cc1nc(-c2cccc(-c3noc(CN4C(=O)COc5ccc(Cl)cc54)n3)c2)cs1 | 1180 s
52 | CCCCC(=O)N1CCCN(C2=NS(=O)(=O)C(c3ccc(C)cc3)=C2C)CC1 | 855 s
53 | COCCNc1c(-c2ccc(F)cc2)nc2sc(C(=O)N3CCN(C)CC3)c(C)n12 | 569 s
54 | CSc1ccc(CNC(=O)COc2nc(C)nc3ccccc23)cc1 | 734 s
55 | CCN1CCN(CCNC(=O)c2cnc(-c3ccc(C)cc3)nc2-c2ccncc2)CC1 | 598 s
56 | COc1ccc(C)cc1NC(=O)C(=O)NCCN1CCN(c2ccccc2F)CC1 | 614 s
57 | Cc1nnc2c(=O)n(CC(=O)NCc3ccc(F)cc3)c3cccnc3n12 | 656 s
58 | O=C(Nc1ccc(F)cc1F)C1(CCO)CCN(Cc2ccccc2)C1 (centres undefined) | 620 s
59 | O=C(Cn1ccn2nc(-c3ccccc3)c(CO)c2c1=O)Nc1ccccc1F | 865 s
60 | COc1ccc(C2CCCCCN2S(C)(=O)=O)cc1 (centres undefined) | 932 s
61 | Cc1ccc(CNC(=O)Cn2c(=O)c3cc(-c4cccs4)nn3c3ncccc32)cc1 | 868 s
62 | CCn1cnc(S(=O)(=O)N2CCC(C(=O)NC3CCCCCC3)CC2)c1 | 737 s
63 | Cc1ccc(NC(=O)NCC2CCOCC2)cc1F | 710 s
64 | O=C(Cn1cnc2nc3c(cc2c1=O)CCCC3)Nc1ccc(Br)cc1F | 791 s
65 | O=C(c1ccsc1)N1CCCC1Cc1noc(-c2cnccn2)n1 (centres undefined) | 707 s
66 | O=C(c1noc2c1CSc1ccccc1-2)N1CCN(c2ccccn2)CC1 | 719 s
67 | CCCCN(CC)CCNC(=O)C1CCN(c2ncnc3onc(C)c23)CC1 | 598 s
68 | Cc1cccc(NC(=O)CSc2nccc(N3CCN(c4cc(C)ccc4C)CC3)n2)c1 | 917 s
69 | COC(=O)c1ccc(-c2nc3cnccn3c2Nc2cc(OC)ccc2OC)cc1 | 870 s

Row | Compound | RP-LC retention time
70 | CN(C(=O)C1=Cc2ccccc2OC=C1)c1ccccc1 | 1020 s
71 | COc1ccc2c(c1)CCN(C(=O)c1csc(-n3cccc3)n1)C2 | 895 s
72 | COc1ccc(NC(=O)N2CCN(c3cc(C)nc(N4CCCC4)n3)CC2)c(OC)c1 | 646 s
73 | O=C(NCC(=O)N1CCCc2ccccc21)c1ccc(Br)cc1 | 892 s
74 | COCCNC(=O)c1cn2ccc(C)cc2n1 | 616 s
75 | CCOc1nc2ccccc2nc1N1CCCC(C(=O)Nc2ccccc2)C1 (centres undefined) | 1180 s
76 | CCN1C(=O)c2cc(NC(=O)c3ccc(Br)o3)ccc2Oc2ccccc21 | 908 s
77 | O=c1c(NCC2CCCCC2)nc2ccncc2n1Cc1ccccc1 | 784 s
78 | CCCn1cc(C(=O)N2CCCc3ccccc32)c2nn(-c3ccccc3)c(=O)c-2c1 | 836 s
79 | O=C(Cn1nc(-c2ccco2)ccc1=O)N1CCN(c2ncccn2)CC1 | 615 s
80 | CC(=O)OCc1cc(=O)n(C)c2c3c4c(cc12)c(C)cc(=O)n4CO3 | 669 s
81 | CCN(Cc1ccccc1)C(=O)C1CCCN(S(=O)(=O)c2ccc3c(c2)CCCC(=O)N3)C1 (centres undefined) | 821 s
82 | COc1ccc(-c2nc3n(c2C(=O)Nc2nc(-c4ccccc4)cs2)CCS3(=O)=O)cc1 | 1010 s
83 | O=C1CCCc2cc(S(=O)(=O)NCc3cccc(Br)c3)ccc2N1 | 764 s
84 | CN(CC1CCOC1)C(=O)Nc1cccc(Cl)c1F (centres undefined) | 733 s
85 | O=C(NCC(O)c1cccc2ccccc12)c1c(F)cccc1Cl (centres undefined) | 796 s
86 | COc1cccc(CNC(=O)c2cn3cc(Cl)ccc3n2)c1OC | 824 s
87 | Cc1cc(=O)n(CC(=O)NCc2cccs2)c(N(C)Cc2ccccc2)n1 | 698 s
88 | N#Cc1cccc(-c2cn3c(n2)N(C(=O)c2ccccc2)CCC3)c1 | 708 s
89 | CN1CCN(CCCNC(=O)c2ccc(CS(=O)c3cccc(Cl)c3)o2)CC1 (centres undefined) | 527 s
